Paper PMC7960226 (Science (New York, N.Y.), 2020)
Like-named read-outs stand apart in the source and are kept apart here. Each block holds one compound with its values, some of them ahead of it.

Legend:
[1] = target: DRD1 (Homo sapiens, UniProt P21728); format: binding; conditions: Table 2, DRD1; accurate to ±20%
[2] = target: SLC18A2 (Homo sapiens, UniProt Q05940); assay: transporter inhibition, SLC18A2; format: biochemical; conditions: Table 2, SLC18A2; accurate to ±20%
[3] = target: SLC6A3 (Homo sapiens, UniProt Q01959); assay: safety panel assay, SLC6A3; format: biochemical; conditions: Table 2, SLC6A3; accurate to ±20%
[4] = target: DRD3 (Homo sapiens, UniProt P35462); conditions: Table 2, DRD3; accurate to ±20%
[5] = target: KCNH2 (Homo sapiens, UniProt Q12809)
[6] = target: SLC6A2 (Homo sapiens, UniProt P23975); conditions: Table 2, SLC6A2; accurate to ±20%
[7] = target: T1, CHRM1 (Homo sapiens, UniProt P11229); conditions: Table 2, CHRM1; an agonist effect was observed; accurate to ±20%
T1 sequence (P11229 1-460): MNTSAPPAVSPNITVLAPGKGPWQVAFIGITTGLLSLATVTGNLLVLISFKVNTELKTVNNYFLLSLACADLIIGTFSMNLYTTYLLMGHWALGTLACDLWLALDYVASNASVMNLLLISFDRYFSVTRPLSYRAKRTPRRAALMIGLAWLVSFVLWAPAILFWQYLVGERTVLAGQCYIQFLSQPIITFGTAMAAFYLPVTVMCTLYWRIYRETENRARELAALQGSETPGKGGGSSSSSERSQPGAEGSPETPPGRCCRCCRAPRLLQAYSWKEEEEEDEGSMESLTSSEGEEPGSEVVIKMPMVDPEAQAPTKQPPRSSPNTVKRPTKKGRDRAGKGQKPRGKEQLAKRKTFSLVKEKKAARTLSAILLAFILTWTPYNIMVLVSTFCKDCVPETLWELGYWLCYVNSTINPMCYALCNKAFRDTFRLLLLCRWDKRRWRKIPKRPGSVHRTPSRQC

[8] = target: T2, PTGS2 (Homo sapiens, UniProt P35354); assay: safety panel assay, PTGS2; format: biochemical; conditions: Table 2, PTGS2; accurate to ±20%
T2 sequence (P35354 18-604): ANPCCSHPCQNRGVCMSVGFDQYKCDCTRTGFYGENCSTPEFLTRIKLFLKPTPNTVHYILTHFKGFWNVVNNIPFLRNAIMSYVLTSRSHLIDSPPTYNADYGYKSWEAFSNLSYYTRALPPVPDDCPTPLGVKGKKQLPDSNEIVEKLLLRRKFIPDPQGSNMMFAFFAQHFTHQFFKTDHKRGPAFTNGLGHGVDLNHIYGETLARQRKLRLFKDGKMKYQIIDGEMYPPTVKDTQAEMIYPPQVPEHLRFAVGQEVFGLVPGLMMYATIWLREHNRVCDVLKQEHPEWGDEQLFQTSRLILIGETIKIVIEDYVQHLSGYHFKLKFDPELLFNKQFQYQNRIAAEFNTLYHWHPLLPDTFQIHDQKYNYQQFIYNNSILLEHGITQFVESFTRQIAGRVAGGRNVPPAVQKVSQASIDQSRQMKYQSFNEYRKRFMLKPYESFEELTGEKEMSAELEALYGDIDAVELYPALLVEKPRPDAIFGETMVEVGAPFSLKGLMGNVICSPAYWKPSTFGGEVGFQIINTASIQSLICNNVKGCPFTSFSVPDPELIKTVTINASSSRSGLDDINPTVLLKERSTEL

[9] = target: PTGS1 (Homo sapiens, UniProt P23219); conditions: Table 2, PTGS1; accurate to ±20%
[10] = target: OPRM1 (Homo sapiens, UniProt P35372); assay: safety panel assay, OPRM1; format: binding; conditions: Table 2, OPRM1 (OPRM); accurate to ±20%
[11] = target: GABRA1 (Homo sapiens, UniProt P14867); assay: safety panel assay, GABRA1; format: binding; conditions: Table 2, GABRA1; accurate to ±20%
[12] = tested on: BioMAP Diversity PLUS panel; assay: BioMAP Diversity PLUS panel of cell-based systems
[13] = target: ALOX5 (Homo sapiens, UniProt P09917); assay: in vitro assay, ALOX5; format: biochemical
[14] = target: TY3H (Homo sapiens, UniProt P07101); assay: in vitro assay, TY3H; format: biochemical; conditions: Table 2, TY3H; accurate to ±20%
[15] = target: KDM4C (Homo sapiens, UniProt Q9H3R0); assay: in vitro assay, KDM4C; format: biochemical; conditions: Table 2, KDM4C; accurate to ±20%
[16] = target: FTO (Homo sapiens, UniProt Q9C0B1); assay: in vitro assay, FTO; format: biochemical; conditions: Table 2, FTO; accurate to ±20%
[17] = target: COMT (Homo sapiens, UniProt P21964); assay: in vitro inhibition of COMT
[18] = Madin-Darby canine kidney permeability assay; conditions: dog, MDCK
[19] = Pharmacokinetics in rats after i.v. and oral administration; conditions: for Cmax: 10 mg/kg, oral 10 mg/kg
[20] = target: HRH3 (Homo sapiens, UniProt Q9Y5N1); conditions: Table 2, HRH3; accurate to ±20%
[21] = target: CHRM2 (Homo sapiens, UniProt P08172); conditions: Table 2, CHRM2; accurate to ±20%
[22] = target: ACHE (Homo sapiens, UniProt P22303); conditions: Table 2, ACHE; accurate to ±20%
[23] = target: T3, SLCO2B1 (Homo sapiens, UniProt O94956); assay: in vitro transporter inhibition, SLCO2B1; format: biochemical; conditions: Table 2, SLCO2B1; accurate to ±20%
T3 sequence (O94956 1-709): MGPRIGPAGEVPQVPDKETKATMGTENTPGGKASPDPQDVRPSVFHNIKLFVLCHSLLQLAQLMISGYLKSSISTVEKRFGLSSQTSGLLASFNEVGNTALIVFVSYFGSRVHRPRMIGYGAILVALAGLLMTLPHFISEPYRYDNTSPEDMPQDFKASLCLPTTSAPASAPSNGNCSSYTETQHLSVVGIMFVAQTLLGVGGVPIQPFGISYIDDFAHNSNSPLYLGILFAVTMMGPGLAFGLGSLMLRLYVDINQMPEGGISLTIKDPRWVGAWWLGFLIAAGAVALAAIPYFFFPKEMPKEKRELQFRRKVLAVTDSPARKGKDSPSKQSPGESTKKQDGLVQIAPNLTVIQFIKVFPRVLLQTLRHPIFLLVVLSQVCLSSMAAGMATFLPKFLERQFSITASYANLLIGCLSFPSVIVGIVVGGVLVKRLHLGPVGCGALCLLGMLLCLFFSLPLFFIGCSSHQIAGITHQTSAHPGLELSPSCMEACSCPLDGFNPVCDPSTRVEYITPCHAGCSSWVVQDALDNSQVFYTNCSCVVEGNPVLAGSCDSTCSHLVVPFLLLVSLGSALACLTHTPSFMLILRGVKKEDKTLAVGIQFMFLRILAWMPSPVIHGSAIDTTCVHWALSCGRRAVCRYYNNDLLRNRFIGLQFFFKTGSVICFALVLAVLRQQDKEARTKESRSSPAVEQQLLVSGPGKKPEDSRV

[24] = target: PDE4D (Homo sapiens, UniProt Q08499); assay: in vitro assay, PDE4D; format: biochemical; conditions: Table 2, PDE4D; accurate to ±20%
[25] = target: PDE3A (Homo sapiens, UniProt Q14432); assay: safety panel assay, PDE3A; format: biochemical; conditions: Table 2, PDE3A; accurate to ±20%
[26] = target: PRMT1 (Homo sapiens, UniProt Q99873); conditions: Table 1, predicted target PRMT1
[27] = target: ADORA3 (Homo sapiens, UniProt P0DMS8); conditions: Table 2, ADORA3; accurate to ±20%
[28] = target: T4, ADRA1A (Homo sapiens, UniProt P35348); conditions: Table 2, ADRA1A; accurate to ±20%
T4 sequence (P35348 1-466): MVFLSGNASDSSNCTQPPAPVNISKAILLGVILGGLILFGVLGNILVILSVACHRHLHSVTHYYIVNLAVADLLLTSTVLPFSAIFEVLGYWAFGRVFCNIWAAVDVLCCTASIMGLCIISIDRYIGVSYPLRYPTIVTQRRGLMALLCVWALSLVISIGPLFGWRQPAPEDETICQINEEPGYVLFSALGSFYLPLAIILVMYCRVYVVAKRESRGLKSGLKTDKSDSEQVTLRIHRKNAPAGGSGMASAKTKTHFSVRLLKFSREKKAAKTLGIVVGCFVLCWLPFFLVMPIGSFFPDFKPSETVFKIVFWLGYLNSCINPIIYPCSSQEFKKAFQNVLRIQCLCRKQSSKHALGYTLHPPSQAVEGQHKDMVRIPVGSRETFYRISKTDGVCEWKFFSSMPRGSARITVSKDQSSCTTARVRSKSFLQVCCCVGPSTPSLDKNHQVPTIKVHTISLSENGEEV

[29] = target: SLC22A6 (Homo sapiens, UniProt Q4U2R8); assay: in vitro transporter assay, SLC22A6; conditions: Table 1, predicted target SLC22A6

Sequence of DRD1 (P21728 whole entry, species assumed): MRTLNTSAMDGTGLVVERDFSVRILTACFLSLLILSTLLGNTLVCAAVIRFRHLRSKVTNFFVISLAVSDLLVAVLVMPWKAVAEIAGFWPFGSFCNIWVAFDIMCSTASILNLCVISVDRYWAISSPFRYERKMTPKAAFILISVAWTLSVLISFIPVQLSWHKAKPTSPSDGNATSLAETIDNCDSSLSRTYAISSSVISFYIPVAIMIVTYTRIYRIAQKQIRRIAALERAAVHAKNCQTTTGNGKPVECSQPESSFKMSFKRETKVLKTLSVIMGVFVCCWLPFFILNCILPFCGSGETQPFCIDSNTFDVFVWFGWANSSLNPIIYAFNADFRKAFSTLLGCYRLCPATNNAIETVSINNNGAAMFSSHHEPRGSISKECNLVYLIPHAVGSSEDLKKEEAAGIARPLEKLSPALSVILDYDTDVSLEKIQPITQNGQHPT
Sequence of COMT (P21964 whole entry): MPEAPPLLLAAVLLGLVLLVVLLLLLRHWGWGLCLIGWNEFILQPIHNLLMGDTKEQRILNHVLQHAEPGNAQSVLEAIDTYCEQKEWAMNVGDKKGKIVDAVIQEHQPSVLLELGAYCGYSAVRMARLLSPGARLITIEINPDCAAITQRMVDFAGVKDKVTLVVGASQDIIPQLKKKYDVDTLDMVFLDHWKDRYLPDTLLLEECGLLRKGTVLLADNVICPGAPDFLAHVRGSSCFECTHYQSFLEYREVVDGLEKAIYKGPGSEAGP
Sequence of OPRM1 (P35372 whole entry, species assumed): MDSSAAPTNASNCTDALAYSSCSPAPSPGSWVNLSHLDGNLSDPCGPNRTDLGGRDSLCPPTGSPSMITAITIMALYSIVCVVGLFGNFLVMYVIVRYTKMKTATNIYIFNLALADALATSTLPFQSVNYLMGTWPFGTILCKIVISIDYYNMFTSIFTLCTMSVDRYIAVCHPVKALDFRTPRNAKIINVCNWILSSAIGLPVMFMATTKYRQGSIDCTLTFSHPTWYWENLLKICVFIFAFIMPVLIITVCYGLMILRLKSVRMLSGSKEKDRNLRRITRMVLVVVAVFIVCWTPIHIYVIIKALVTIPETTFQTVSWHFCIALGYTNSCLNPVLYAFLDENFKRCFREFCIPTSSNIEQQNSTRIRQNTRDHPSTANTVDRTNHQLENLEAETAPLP
Sequence of KCNH2 (Q12809 whole entry): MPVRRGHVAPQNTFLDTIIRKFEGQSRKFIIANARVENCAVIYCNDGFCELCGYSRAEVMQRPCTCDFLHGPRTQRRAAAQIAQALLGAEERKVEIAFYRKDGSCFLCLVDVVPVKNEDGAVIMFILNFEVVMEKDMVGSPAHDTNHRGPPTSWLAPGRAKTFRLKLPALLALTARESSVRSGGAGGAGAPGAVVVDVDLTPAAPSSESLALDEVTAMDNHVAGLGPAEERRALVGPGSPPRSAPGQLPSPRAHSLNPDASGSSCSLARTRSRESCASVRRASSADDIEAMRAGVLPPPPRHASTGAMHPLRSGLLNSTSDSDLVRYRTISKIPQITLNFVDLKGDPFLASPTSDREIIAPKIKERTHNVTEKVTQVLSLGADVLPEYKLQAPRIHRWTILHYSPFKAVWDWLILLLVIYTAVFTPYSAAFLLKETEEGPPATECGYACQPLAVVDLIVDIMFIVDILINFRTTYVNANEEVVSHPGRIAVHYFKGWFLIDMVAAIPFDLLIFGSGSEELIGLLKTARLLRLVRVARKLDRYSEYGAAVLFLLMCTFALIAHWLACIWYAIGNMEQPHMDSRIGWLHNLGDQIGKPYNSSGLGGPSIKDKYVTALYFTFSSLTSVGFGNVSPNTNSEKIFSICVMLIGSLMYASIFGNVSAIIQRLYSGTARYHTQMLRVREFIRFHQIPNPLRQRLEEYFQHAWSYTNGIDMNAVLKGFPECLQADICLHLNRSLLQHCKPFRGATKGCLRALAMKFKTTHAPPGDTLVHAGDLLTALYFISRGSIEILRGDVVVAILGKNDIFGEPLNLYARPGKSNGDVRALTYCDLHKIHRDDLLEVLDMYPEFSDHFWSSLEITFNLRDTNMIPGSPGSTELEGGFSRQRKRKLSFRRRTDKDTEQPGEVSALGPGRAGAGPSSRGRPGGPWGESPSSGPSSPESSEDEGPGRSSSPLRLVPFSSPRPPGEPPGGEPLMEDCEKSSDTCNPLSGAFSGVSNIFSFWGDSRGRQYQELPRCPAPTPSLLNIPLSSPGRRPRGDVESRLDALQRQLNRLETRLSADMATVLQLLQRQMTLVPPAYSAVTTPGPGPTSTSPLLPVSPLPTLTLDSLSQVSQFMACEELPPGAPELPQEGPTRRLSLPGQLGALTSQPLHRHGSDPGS
Sequence of SLC18A2 (Q05940 whole entry, species assumed): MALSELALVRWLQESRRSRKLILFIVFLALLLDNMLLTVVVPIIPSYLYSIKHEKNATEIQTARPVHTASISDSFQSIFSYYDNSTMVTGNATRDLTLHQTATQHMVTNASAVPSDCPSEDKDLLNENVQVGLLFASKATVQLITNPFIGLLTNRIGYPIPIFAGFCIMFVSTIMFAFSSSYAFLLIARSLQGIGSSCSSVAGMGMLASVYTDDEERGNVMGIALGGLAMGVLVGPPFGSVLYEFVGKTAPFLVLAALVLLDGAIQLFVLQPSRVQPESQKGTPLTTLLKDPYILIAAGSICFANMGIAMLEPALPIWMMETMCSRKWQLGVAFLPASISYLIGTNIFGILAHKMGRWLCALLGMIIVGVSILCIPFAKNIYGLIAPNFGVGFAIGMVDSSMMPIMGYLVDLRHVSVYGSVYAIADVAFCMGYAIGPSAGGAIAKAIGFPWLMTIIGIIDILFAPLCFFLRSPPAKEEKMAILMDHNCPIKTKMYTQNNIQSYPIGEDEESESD
Sequence of CHRM2 (P08172 whole entry, species assumed): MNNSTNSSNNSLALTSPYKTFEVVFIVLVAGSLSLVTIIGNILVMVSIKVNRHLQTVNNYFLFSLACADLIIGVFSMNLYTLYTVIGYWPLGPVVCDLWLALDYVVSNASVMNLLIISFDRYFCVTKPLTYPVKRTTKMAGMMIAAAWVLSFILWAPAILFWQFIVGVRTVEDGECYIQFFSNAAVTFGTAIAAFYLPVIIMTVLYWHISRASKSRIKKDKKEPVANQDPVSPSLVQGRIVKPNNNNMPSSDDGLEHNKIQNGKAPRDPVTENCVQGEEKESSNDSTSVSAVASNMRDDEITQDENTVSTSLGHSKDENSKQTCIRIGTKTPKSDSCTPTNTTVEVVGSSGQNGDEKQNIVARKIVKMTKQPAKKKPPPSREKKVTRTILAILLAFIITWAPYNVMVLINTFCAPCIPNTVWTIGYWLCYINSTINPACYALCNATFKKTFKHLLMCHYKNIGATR
Sequence of ALOX5 (P09917 whole entry, species assumed): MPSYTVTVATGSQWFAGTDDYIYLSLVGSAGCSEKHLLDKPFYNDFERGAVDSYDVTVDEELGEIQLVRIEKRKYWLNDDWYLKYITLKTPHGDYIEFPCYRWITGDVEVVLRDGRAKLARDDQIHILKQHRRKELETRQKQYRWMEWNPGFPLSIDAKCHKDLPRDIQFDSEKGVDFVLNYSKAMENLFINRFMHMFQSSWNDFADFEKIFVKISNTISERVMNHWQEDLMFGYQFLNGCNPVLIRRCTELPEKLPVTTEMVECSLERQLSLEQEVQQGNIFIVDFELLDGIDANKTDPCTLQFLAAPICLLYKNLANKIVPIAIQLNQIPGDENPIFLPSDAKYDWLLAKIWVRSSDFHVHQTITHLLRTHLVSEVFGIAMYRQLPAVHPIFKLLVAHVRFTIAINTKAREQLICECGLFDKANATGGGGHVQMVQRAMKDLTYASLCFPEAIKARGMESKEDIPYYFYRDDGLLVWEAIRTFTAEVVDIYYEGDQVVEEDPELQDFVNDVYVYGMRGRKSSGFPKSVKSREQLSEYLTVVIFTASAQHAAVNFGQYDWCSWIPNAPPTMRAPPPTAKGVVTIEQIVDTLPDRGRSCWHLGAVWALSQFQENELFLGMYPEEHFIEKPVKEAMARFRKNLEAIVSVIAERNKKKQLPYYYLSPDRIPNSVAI
Sequence of SLC6A2 (P23975 whole entry, species assumed): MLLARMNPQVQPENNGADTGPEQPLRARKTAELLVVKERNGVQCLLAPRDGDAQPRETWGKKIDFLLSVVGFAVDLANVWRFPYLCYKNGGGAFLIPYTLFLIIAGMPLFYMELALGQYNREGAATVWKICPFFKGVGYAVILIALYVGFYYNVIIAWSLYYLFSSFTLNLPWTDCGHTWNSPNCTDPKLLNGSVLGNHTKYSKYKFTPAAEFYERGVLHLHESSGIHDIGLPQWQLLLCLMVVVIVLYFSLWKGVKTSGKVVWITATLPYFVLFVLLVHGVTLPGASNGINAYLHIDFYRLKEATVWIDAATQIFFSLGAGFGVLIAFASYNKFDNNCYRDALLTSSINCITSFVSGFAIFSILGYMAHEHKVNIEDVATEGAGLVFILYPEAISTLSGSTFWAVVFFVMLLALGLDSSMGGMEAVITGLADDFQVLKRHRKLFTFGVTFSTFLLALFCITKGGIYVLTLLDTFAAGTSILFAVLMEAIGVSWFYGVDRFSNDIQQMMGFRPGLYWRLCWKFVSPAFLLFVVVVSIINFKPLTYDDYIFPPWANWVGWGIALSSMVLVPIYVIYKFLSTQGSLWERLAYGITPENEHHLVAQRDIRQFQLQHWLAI
Sequence of HRH3 (Q9Y5N1 whole entry, species assumed): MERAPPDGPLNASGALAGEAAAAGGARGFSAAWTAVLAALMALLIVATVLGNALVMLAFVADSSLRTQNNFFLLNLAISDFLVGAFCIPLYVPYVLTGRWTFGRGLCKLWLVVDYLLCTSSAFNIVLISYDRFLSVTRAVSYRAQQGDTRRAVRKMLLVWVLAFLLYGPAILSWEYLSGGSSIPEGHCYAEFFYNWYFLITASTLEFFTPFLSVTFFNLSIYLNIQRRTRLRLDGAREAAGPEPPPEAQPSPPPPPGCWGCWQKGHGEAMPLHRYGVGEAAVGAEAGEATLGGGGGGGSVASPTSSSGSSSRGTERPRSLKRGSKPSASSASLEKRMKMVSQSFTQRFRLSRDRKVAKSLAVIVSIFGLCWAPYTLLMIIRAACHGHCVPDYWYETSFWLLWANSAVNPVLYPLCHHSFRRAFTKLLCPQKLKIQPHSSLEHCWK

Compound: CC(=O)[O][Hg][c]1ccccc1 [Phenylmercuric acetate]
Ki/IC50 Or EC50 [1]: 2.2 µM
Ki/IC50 Or EC50 [2]: 0.36 µM
Ki/IC50 Or EC50 [3]: 1.8 µM
Ki/IC50 Or EC50 [4]: 0.024 µM
Ki/IC50 Or EC50 ([5]; Table 2, KCNH2, accurate to ±20%): 6.2 µM
Ki/IC50 Or EC50 [6]: 1.7 µM
Ki/IC50 Or EC50 [7]: 8.1 µM

Compound: CCCCCCCC/C=C\CCCCCCCC(=O)O [Oleic acid]
Ki/IC50 Or EC50 [8]: 3.5 µM
Ki/IC50 Or EC50 [2]: 4.7 µM
Ki/IC50 Or EC50 [9]: 6.7 µM

Compound: O=C([O-])C1=NN(c2ccc(S(=O)(=O)[O-])cc2)C(=O)C1N=Nc1ccc(S(=O)(=O)[O-])cc1.[Na+].[Na+].[Na+] (stereo not drawn) [FD&C Yellow No. 5 (Tartrazine), Tartrazine]
Ki/IC50 Or EC50 [1]: 23 µM
Ki/IC50 Or EC50 [10]: 16 µM
Ki/IC50 Or EC50 [11]: 13 µM
activity in the BioMAP cell-based systems ([12]; 1.1, 3.3, 10, 30 μM): no measurable activity

IC50 [13]: 430 nM
Ki/IC50 Or EC50 ([13]; Table 2, ALOX5, accurate to ±20%): 0.43 µM
Ki/IC50 Or EC50 [14]: 1.9 µM
Ki/IC50 Or EC50 [15]: 39 µM
Ki/IC50 Or EC50 [16]: 3.0 µM
IC50 [17]: 15 nM
Ki/IC50 ([17]; Table 1, predicted target COMT): 0.015 µM
Papp [18]: 11.7 ×10⁻⁶ cm/s
half-life ([19]; rat, blood, iv, 1 mg/kg): 294 min
Cmax ([19]; rat, blood, po, Oral Cmax, rats): 5 nM
i.v. AUC 0–24 (d.n.) ([19]; rats, i.v. 1 mg/kg, dose normalized): 6908 nM-hour
Cmax ([19]; read-out: Oral Cmax, rats, blood): < 8.9 nM
Compound: CCCOC(=O)c1cc(O)c(O)c(O)c1 [Propyl gallate]
Ki/IC50 Or EC50 [8]: 7.2 µM
effect on proliferation ([12]; B and T cells, coronary artery smooth muscle cells, endothelial cells, fibroblasts, at 10 or 30 μM): antiproliferative

Compound: CN(C)c1ccc2nc3ccc(=[N+](C)C)cc-3sc2c1 [Methylene Blue]
Ki/IC50 Or EC50 [20]: 0.88 µM
Ki/IC50 Or EC50 ([5]; human): 0.090 0.19 0.88 27.5 μM
Ki/IC50 Or EC50 [21]: 0.19 µM
Ki/IC50 Or EC50 [22]: 0.090 µM

Compound: O=C([O-])c1c(Cl)c(Cl)c(Cl)c(Cl)c1-c1c2cc(Br)c(=O)c(Br)c-2oc2c(Br)c([O-])c(Br)cc12.[Na+].[Na+] [D&C Red No. 28, Phloxine B]
Ki/IC50 Or EC50 [23]: 0.60 µM
Ki/IC50 Or EC50 [24]: 0.94 µM
Ki/IC50 Or EC50 [1]: 0.59 µM
Ki/IC50 Or EC50 [10]: 0.82 µM
Ki/IC50 Or EC50 [25]: 0.13 µM
Ki/IC50 [26]: 0.70 µM
Ki/IC50 Or EC50 [27]: 0.48 µM
Ki/IC50 Or EC50 [28]: 0.48 µM
Ki/IC50 Or EC50 [21]: 0.68 µM
Ki/IC50 [29]: 0.064 µM
